# Assay results from patent publication US10787448B2, “Indolizino [3,2-C] quinoline-based fluorescent probe” (SEOUL NATIONAL UNIVERSITY R & DB FOUNDATION, priority 2015, dated 2020).
# Where “and” joins values, the source holds several entries; their conditions need not be identical. Equal entries are not always repeated.
# Experiments:
# HeLa cells = experiment: Cell permeability: fluorescence imaging and live cell confocal imaging; format: cell-based; details: for intracellular organelles in which fluorescence is detected: HeLa cells; for co-localization with LysoTracker: live-cell confocal imaging, IQ 56 green, IQ 57 blue wavelength; for detection with yellow and red wavelength filters: live HeLa cells, ex 514 nm, em 519 nm and ex 561 nm, em 566 nm
# Protocol: HeLa cells were seeded in a 96-well plate and incubated for 24 hours. The cells were treated with the indolizino[3,2-c]quinoline compounds, and incubated at 37° C. under a 5% CO2 condition for 30 minutes. After removal of the medium, the cells were washed with 1×DPBS. The washed cells were fixed with 4% formaldehyde at room temperature for 10 minutes, and washed with 1×DPBS. A cell image was screened using an Operetta HTS imaging system (PerkinElmer).
# After HeLa cells were seeded to account for 70 to 80% of the area of a confocal dish (SPL life science) and overnight cultured, the indolizino[3,2-c]quinoline compounds (10 μM) prepared by mixing fresh DMEM after removal of the existing DMEM medium were dispensed, and the cells were incubated for 30 minutes to 1 hour at 37° C. Afterward, if needed, LysoTracker (50 nM) was mixed with DMEM to remove the existing medium and then dispensed to the cells, and the cells were incubated for 30 minutes at 37° C. After incubation, without washing, the cells were examined by a confocal laser microscope (Leica TCS SP8 SMD, Leica, Mannheim, Germany). However, when co-stained with a LysoTracker, the cells were washed with DPBS twice before the microscopy. […]
# [1] = Analysis of optical characteristics (absorption, fluorescence emission, quantum yield) in solvents; format: physicochemical; details: for Fluorescence Emission Intensity / Peak emission wavelength λmax em(nm) / Relative fluorescence Emission Intensitynorm: H2O at 2 μM; for Peak emission wavelength λmax em(nm): excited at the longest absorption maxima; for Relative fluorescence Emission Intensitynorm: normalized fluorescence intensity; for Fluorescence quantum yield (Φ): Rhodamine 6G as a standard (Φ = 0.86 in water)
# Protocol: Fluorescence emission spectra were obtained at 20° C. using a JASCO FP-6500 spectrofluorometer, a 10 mM stock solution prepared by dissolving an indolizino[3,2-c]quinoline compound in DMSO was diluted in a solvent. […] Absorption spectra were recorded at room temperature using a Perkin Elmer Lamda 20 UV/VIS spectrometer. […]
# Further, the compounds (excluding Entry #51-57, etc.) of Formula 1 were subjected to spectrum analyses in various solvents, and the results are shown in Tables 6 and 7, and FIGS. 5C and 5D.
Structure (SMILES),"quantum yield (Φ) ([1]; DW, standard Rhodamine 6G)","quantum yield (Φ) ([1]; EtOH, standard Coumarin 153)",Fluorescence Emission Intensity [1],Peak emission wavelength λmax em(nm) [1] [nm],Relative fluorescence Emission Intensitynorm [1],also measured
"COc1ccc(-c2nc3ccccc3c3cc4ccccn4c23)cc1CN1CCOCC1 [IQ 56, 4-(5-(indolizino[3,2-c]quinolin-6-yl)-2-methoxybenzyl)morpholine]",,,,,,intracellular organelles in which fluorescence is detected (HeLa cells): intensively distributed in the lysosomal area; co-localization with LysoTracker (HeLa cells): co-localized with the commercially available marker LysoTracker
"CCOC(=O)c1c2c3ccccc3nc(-c3ccc(OC)c(CN4CCOCC4)c3)c2n2ccccc12 [IQ 57, ethyl 6-(4-methoxy-3-(morpholinomethyl)phenyl)indolizino[3,2-c]quinoline-12-carboxylate]",,,,,,intracellular organelles in which fluorescence is detected (HeLa cells): intensively distributed in the lysosomal area; co-localization with LysoTracker (HeLa cells): co-localized with the commercially available marker LysoTracker
"COc1ccc(-c2ccn3c(c2)cc2c4ccccc4nc(-c4ccc(OC)cc4)c23)cc1 [IQ-B26, 6,10-bis(4-methoxyphenyl)indolizino[3,2-c]quinoline]",,,,,,detection with yellow and red wavelength filters (HeLa cells): detected
"COc1ccc(-c2nc3ccccc3c3cc4cc(-c5ccc(/C=C/C=O)cc5)ccn4c23)cc1 [IQ-B31, (E)-3-(4-(6-(4-methoxyphenyl)indolizino[3,2-c]quinolin-10-yl)phenyl)acrylaldehyde]",,,,,,detection with yellow and red wavelength filters (HeLa cells): detected; λex(nm) ([1]; Table 7): 440 nm
c1ccc(-c2nc3ccccc3c3cc4ccccn4c23)nc1 [compound 5],0.005,0.196,4.7,532,0.02,Maximum absorption wavelength λmax abs(nm) [1]: 400 nm
COc1cc(OC)cc(-c2nc3ccccc3c3cc4ccccn4c23)c1 [compound 7],0.026,0.756,60.8,527.5,0.26,
Clc1ccc(-c2nc3ccccc3c3cc4ccccn4c23)s1 [compound 11],0.006,0.111,7.5,536,0.03,Maximum absorption wavelength λmax abs(nm) [1]: 407 nm
Cc1cccn2c1cc1c3ccccc3nc(-c3ccc(Br)cc3)c12 [compound 12],0.131,0.623,11.8,531.5,0.05,Maximum absorption wavelength λmax abs(nm) [1]: 395 nm
Cc1cccn2c1cc1c3ccccc3nc(-c3ccc([N+](=O)[O-])cc3)c12 [compound 13],0.000,0.000,,,0.00,
Cc1ccc(-c2nc3ccccc3c3cc4c(C)cccn4c23)cc1 [compound 15],0.024,0.654,9.4,535.5,0.04,
COc1cc(OC)cc(-c2nc3ccccc3c3cc4c(C)cccn4c23)c1 [compound 16],0.014,0.672,11.7,535,0.05,
COC(=O)c1c2c3ccccc3nc(-c3cccc4ccccc34)c2n2ccccc12 [compound 20],0.367,0.468,143.5,493,0.62,
COc1ccc(-c2nc3ccccc3c3cc4ccc(Br)cn4c23)cc1 [compound 22],0.070,0.440,89.5,512,0.38,
Cc1ccc(-c2nc3ccccc3c3cc4ccc(Br)cn4c23)cc1 [compound 23],0.065,0.106,82.4,518,0.35,
COc1ccc(-c2nc3ccccc3c3cc4ccc(Br)cn4c23)cc1OC [compound 24],0.030,0.063,75.1,513,0.32,
Brc1ccc2cc3c4ccccc4nc(-c4ccco4)c3n2c1 [compound 25],0.009,0.031,13.4,505.5,0.06,
CCOC(=O)c1c2c3ccccc3nc(-c3ccc([N+](=O)[O-])cc3)c2n2ccccc12 [compound 26],0.000,0.000,,,0.00,Maximum absorption wavelength λmax abs(nm) [1]: 384 nm
CCOC(=O)c1c2c3ccccc3nc(-c3cccc(Cl)c3)c2n2ccccc12 [compound 27],0.073,0.318,98.9,474,0.42,

Structure (SMILES),"quantum yield (Φ) ([1]; DW, standard Rhodamine 6G)","quantum yield (Φ) ([1]; EtOH, standard Coumarin 153)",Fluorescence Emission Intensity [1],Peak emission wavelength λmax em(nm) [1] [nm],Relative fluorescence Emission Intensitynorm [1],also measured
CCOC(=O)c1c2c3ccccc3nc(-c3cccc(F)c3)c2n2ccccc12 [compound 28],,,211.7,476,0.91,Absorption coefficient (cm^−1M^−1) [1]: 10780 cm^−1M^−1; Absorption wavelength λex(nm) [1]: 369 nm; Emission wavelength λem(nm) [1]: 476 nm; λem (nm) ([1]; DMF): 470 nm; λem (nm) ([1]; DMSO): 472.5 nm; λem (nm) ([1]; EtOH): 449.5 nm; λem (nm) ([1]; EtOH:CHCl3 = 1:5): 450 nm; λem (nm) ([1]; H2O): 476 nm; λem (nm) ([1]; MC): 451.5 nm; Fluorescence quantum yield (Φ) [1]: 0.061
CCOC(=O)c1c2c3ccccc3nc(-c3cccc(OC)c3)c2n2ccccc12 [compound 29],0.120,0.365,186.2,482,0.80,
CCOC(=O)c1c2c3ccccc3nc(-c3ccc(OC)c(OC)c3)c2n2ccccc12 [compound 30],,,210.7,480.5,0.90,Absorption coefficient (cm^−1M^−1) [1]: 10580 cm^−1M^−1; Absorption wavelength λex(nm) [1]: 369 nm; Emission wavelength λem(nm) [1]: 481 nm; λem (nm) ([1]; DMF): 450 nm; λem (nm) ([1]; DMSO): 452.5 nm; λem (nm) ([1]; EtOH): 444 nm; λem (nm) ([1]; EtOH:CHCl3 = 1:5): 447.5 nm; λem (nm) ([1]; H2O): 478.5 nm; λem (nm) ([1]; MC): 448 nm; Fluorescence quantum yield (Φ) [1]: 0.084
Cc1cccn2c1cc1c3ccccc3nc(-c3cccc4ccccc34)c12 [compound 33],0.082,0.277,,,,
Cc1ccc2cc3c4ccccc4nc(-c4cccc5ccccc45)c3n2c1 [compound 35],0.073,0.365,,,,
COc1ccc(-c2nc3ccccc3c3c(C#N)c4ccccn4c23)cc1 [compound 39],0.026,0.492,,,,
COC(=O)c1c2c3ccccc3nc(-c3ccccn3)c2n2ccccc12 [compound 43],0.014,0.275,,,,
COc1ccc(-c2nc3ccccc3c3c(-c4ccc(C(F)(F)F)cc4)c4ccccn4c23)cc1 [compound 47],0.050,0.597,,,,
COc1ccc(-c2nc3ccccc3c3c(-c4ccc(C(C)=O)cc4)c4ccccn4c23)cc1 [compound 48],0.105,0.050,,,,
COc1ccc(-c2nc3ccccc3c3c(Br)c4ccccn4c23)cc1 [compound 49],0.085,0.195,,,,
COc1ccc(-c2nc3ccccc3c3c(I)c4ccccn4c23)cc1 [compound 50],0.014,0.037,,,,
CCOC(=O)c1c2c3ccccc3nc(-c3ccc(OC)cc3)c2n2ccccc12 [compound 51],,,,,,λex(nm) ([1]; Table 6): 403 nm
Cc1cccn2c1cc1c3ccccc3nc(-c3cccs3)c12 [compound 52],,,,,,λex(nm) ([1]; Table 6): 399 nm
Cc1cccn2c1cc1c3ccccc3nc(-c3ccc(Cl)o3)c12 [compound 53],,,,,,λex(nm) ([1]; Table 6): 422 nm
C#Cc1c2c3ccccc3nc(-c3ccc(OC)cc3)c2n2ccccc12 [compound 55],,,,,,λex(nm) ([1]; Table 6): 413 nm
COc1ccc(-c2nc3ccccc3c3cc4ccccn4c23)cc1CN1CCOCC1 [compound 56],,,,,,λex(nm) ([1]; Table 6): 450 nm and 422 nm
CCOC(=O)c1c2c3ccccc3nc(-c3ccc(OC)c(CN4CCOCC4)c3)c2n2ccccc12 [compound 57],,,,,,λex(nm) ([1]; Table 6): 401 nm
